Experimental data taken from article PMC11009625, “Antibiotic class with potent in vivo activity targeting lipopolysaccharide synthesis in Gram-negative bacteria” (Proceedings of the National Academy of Sciences of the …, 2024).
In brackets after ≈: the same amount, converted by molar mass. Where two headings read alike, the source gives them in different places.

Legend:
[1] = system: K. pneumoniae SSI #3010 (EN124); experiment: Neutropenic mouse peritonitis model, K. pneumoniae; format: in vivo, mice; conditions: single sc dose; for ED50: Klebsiella pneumoniae; for ED50 / 1-log effective dose, blood, K. pneumoniae / 2-log effective dose, blood, K. pneumoniae / 1-log effective dose, peritoneal fluid, K. pneumoniae / 2-log effective dose, peritoneal fluid, K. pneumoniae: modeled efficacy curves; for Efficacy against K. pneumoniae compared with ciprofloxacin (13 mg/kg): doses ≥50 mg/kg, mouse peritonitis
Experimental: (§1) PK and safety studies were done the Latvian Institute for Organic Synthesis (Riga, Latvia) and in vivo efficacy studies were done at Statens Serum Institut (Copenhagen, Denmark). Assays were done in accordance with the relevant permits at the respective sites (SI Appendix). For PK studies, plasma samples were taken from mice dosed subcutaneously and the samples were analyzed by UPLC/MS/MS. For in vivo efficacy studies, neutropenic mice were infected intraperitoneally with 10^6 bacteria and treated with subcutaneously with test compounds 1 h after infection. The mice were euthanized 4 h after treatment and serially diluted samples of blood and peritoneal fluid were plated onto blood agar plates. Complete experimental details available in SI Appendix.
(§2) Lantmännen) and water. The experimental procedures were performed in accordance with the guidelines of the European Community and local laws and policies (Directive 2010/63/EU), and all of the procedures were approved by Food and Veterinary Service, Riga, Latvia. […]
(§3) Bacterial strains and inoculum. E. coli EC 106-09 (EN122) and K. pneumoniae SSI #3010 (EN124) are clinical isolates from Denmark. Bacterial suspensions for inoculation of mice were prepared […]
(§4) at room temperature from fresh overnight cultures on 5% blood agar plates produced by SSI diagnostica (Copenhagen Denmark). The inoculum was prepared immediately before inoculation by suspending colonies in sterile 0.9% saline to an optical density of 0.13 at 540 nm, giving a density of 10^8 CFU/ml and further diluted in 0.9% saline to 2 x 10^6 CFU/ml before injecting into the mice. For each experiment, the size of the inoculum was determined by making ten-fold dilutions in 0.9% saline, of which 20 µl was plated on 5% blood agar plates with subsequent counting of colonies after incubation overnight at 35°C in ambient air.
(§5) Mice. Outbred female CD-1 mice 26-30 gram (Envigo, Netherlands) were housed at the animal facility at Statens Serum Institut. The temperature was 22 °C +/- 2 °C and the humidity was 55 +/- 10%. The mice were housed in individually ventilated type 3 macrolone cages with bedding from Tapvei. The air changes per hour were approximately 8-12 times (70-73 times per hours inside cages), and light/dark period was in 12-hours interval of 6 a.m.- 6 p.m./6 p.m – 6 a.m.
(§6) The mice had ad libitum access to domestic quality drinking water and food Teklad Global diet 2916C-Envigo) and occasionally peanuts and sunflower seeds (Køge Korn A/S). Further, the animals were offered Enviro-Dri nesting material and cardboard houses (Bio-serv).
(§7) Mouse peritonitis model. The mice were rendered neutropenic by injecting 0.5 mL cyclophosphamide solution, 200 mg/kg intraperitoneally at 4 days and 100 mg/kg at 1 day prior to inoculation. 1 h before inoculation, mice were treated orally with […] Nurofen (20 mg ibuprofen/mL corresponding to approximately 30 mg/kg) as a pain relief. Inoculation was performed by intraperitoneal injection of 0.5 ml of the bacterial suspension containing log 6
(§8) CFU. The mice were treated subcutaneously with 0.25 – 0.30 mL based on weight, in the neck region with a single dose of compound at 1 hour post inoculation. Mice were monitored for clinical signs of discomfort. 4 h after treatment the mice were anesthetized and blood was collected by heart puncture into EDTA tubes and thereafter mice were euthanized by cervical dislocation and peritoneal washes were performed by injecting 2 ml of sterile saline intraperitoneally, followed by gentle massage of the abdomen and opening the peritoneum to collect fluid. Full blood and peritoneal fluids were serially diluted (ten-fold dilutions) and 20 µl was plated on blood agar plates produced at the SSI diagniostica (Copenhagen, Denmark) with subsequent counting of colonies after incubation overnight at 35°C in ambient. All animal experiments were approved by the National Committee of Animal Ethics – Animal Experiment Inspectorate under the Danish Ministry of Justice.
(§9) Statistical analyses. […]

[2] = system: E. coli EC 106-09 (EN122); experiment: Neutropenic mouse peritonitis model, E. coli; format: in vivo, mice; conditions: single sc dose, modeled efficacy curves; for ED50: Escherichia coli
Experimental: as §1, §2, §3, §4, §5, §6, §7, §8, §9

[3] = system: PaLpxH; experiment: PaLpxH enzyme inhibition compared to EcLpxH; format: biochemical, P. aeruginosa; conditions: PaLpxH vs EcLpxH
[4] = system: P. aeruginosa PAO1 and efflux-defective PAO750; experiment: MIC, P. aeruginosa laboratory strains; format: cell-based; conditions: Pseudomonas aeruginosa
Experimental: (§10) Minimum inhibitory concentration (MIC) values were determined according to the Clinical Laboratory Standards Institute guidelines. Frequency of resistance was determined by plating ~5 × 10^8 bacterial cells on agar-solidified media plates containing test compound at concentrations corresponding to four times the measured solid-media MIC of the strains. Colonies were counted after 24 h, restreaked onto media containing the same concentration of compound, and the MIC remeasured against the assayed compound. Genomic DNA from isolated clones was sequenced by paired-end sequencing on an Illumina MiSeq device. Complete experimental details available in SI Appendix. […]
Minimum inhibitory concentration (MIC) determination. Broth microdilution and agar dilution
MIC assays were conducted according to CLSI guidelines (M07-2012). Appropriate inoculation
suspension density was assessed using a Sensititre Nephelometer with a Sensititre 0.5
McFarland Standard. […]

[5] = system: K. pneumoniae ATCC 13883; experiment: Frequency of resistance and agar MIC, K. pneumoniae; format: cell-based; conditions: Klebsiella pneumoniae, ATCC13883, read-out: Agar MIC K. pneumoniae ATCC 13883
Experimental: as §10
Minimum inhibitory concentration (MIC) determination. […] Appropriate inoculation suspension density was assessed using a Sensititre Nephelometer with a Sensititre 0.5 […]
Frequency of Resistance. Frequency of resistance was assessed by spread plating between […] cfu of a freshly-grown culture of the strain of interest on plates containing a concentration of compound corresponding to 4 times the MIC of the strain (as determined by agar-dilution MIC). […] The frequency of resistance was determined by dividing the number of colonies obtained on the selective plates after 24 hours of growth by the calculated total population plated. […]

[6] = blood, read-out: ED50, blood, K. pneumoniae
[7] = peritoneal fluid, read-out: ED50, peritoneal fluid, K. pneumoniae
[8] = blood, read-out: ED50, blood, E. coli
[9] = peritoneal fluid, read-out: ED50, peritoneal fluid, E. coli
[10] = PAO1, read-out: MIC P. aeruginosa PAO1
[11] = PAO1, read-out: MIC P. aeruginosa PAO750

| Compound | ED50 [1, 6] [mg/kg] | ED50 [1, 7] [mg/kg] | Efficacy against K. pneumoniae compared with ciprofloxacin (13 mg/kg) [1] | 1-log effective dose, blood, K. pneumoniae ([1]; blood) [mg/kg] | 2-log effective dose, blood, K. pneumoniae ([1]; blood) [mg/kg] | 1-log effective dose, peritoneal fluid, K. pneumoniae ([1]; peritoneal fluid) [mg/kg] | 2-log effective dose, peritoneal fluid, K. pneumoniae ([1]; peritoneal fluid) [mg/kg] | ED50 [2, 8] [mg/kg] | ED50 [2, 9] [mg/kg] | 1-log effective dose, blood, E. coli ([2]; blood) [mg/kg] | 2-log effective dose, blood, E. coli ([2]; blood) [mg/kg] | 3-log effective dose, blood, E. coli ([2]; blood) [mg/kg] | 1-log effective dose, peritoneal fluid, E. coli ([2]; peritoneal fluid) [mg/kg] | 2-log effective dose, peritoneal fluid, E. coli ([2]; peritoneal fluid) [mg/kg] | Factor of decrease in inhibitory effect on PaLpxH compared to EcLpxH [3] | MIC [4, 10] [µg/mL] | MIC [4, 11] [µg/mL] | MIC [5] [µg/mL] |
| --- | --- | --- | --- | --- | --- | --- | --- | --- | --- | --- | --- | --- | --- | --- | --- | --- | --- | --- |
| Cc1cc(C#N)nc(N2CCN(S(=O)(=O)c3ccc(NC(=O)c4cc(CNCCCN)ccc4N(C)S(C)(=O)=O)cc3)CC2)n1.Cl.Cl [EBL-3599] | 20.2 | 19.8 | efficacy similar to ciprofloxacin | 20.2 | 28 | 20.4 | 30.7 | 20 | 29.6 | 28.3 | 42.8 | 63.4 | 45.9 | 70.0 | > 10 | > 64 | 64 | 0.5 |
| Cc1cc(C#N)nc(N2CCN(S(=O)(=O)c3ccc(NC(=O)c4cc(CN5CC(CN)C5)ccc4N(C)S(C)(=O)=O)cc3)CC2)n1 [EBL-3647] | 21 | 21 | efficacy similar to ciprofloxacin | 21 | 27 | 22.8 | 37.3 | 12.3 | 13.6 | 14.5 | 19.6 | 27.6 | 20.8 | 31.2 | > 10 | > 64 | 64 (≈ 95.8 µM) | 0.5 (≈ 0.749 µM) |
